{
  "source": "ChEMBL document CHEMBL1132061",
  "about": "“Studies towards the identification of potent, selective and bioavailable thrombin inhibitors” (Bioorg Med Chem Lett, 1999)",
  "key": {"Prothrombin": {"molecular_target": "Prothrombin (Homo sapiens, UniProt P00734)", "experiment": "In vitro inhibition of human thrombin."}, "Homo sapiens": {"organism": "Homo sapiens", "experiment": "Influence on the doubling of activated partial human thromboplastin time(APTT)", "assay_type": "functional"}, "[1]": {"experiment": "Bioavailability in rat after p.o. administration at a dose of 30 mg/kg", "assay_type": "ADME, organism-based", "details": "in vivo, po"}},
  "data": [
    {"smiles": "CCC1CCN(C(=O)[C@H](Cc2ccc(N)cc2)NS(=O)(=O)c2cnccc2N[C@H](CO)Cc2ccc(OC)cc2)CC1", "values": [
      {"measurement": "Ki", "setting": "Prothrombin", "result": 40, "unit": "nM"}
    ]},
    {"smiles": "CN(C)C[C@H](Cc1ccccc1)Nc1ccncc1S(=O)(=O)N[C@@H](Cc1ccccc1)C(=O)N1CCC(CCF)CC1", "note": "(stereo in doubt; 8)", "values": [
      {"measurement": "Ki", "setting": "Prothrombin", "result": 130, "unit": "nM"}
    ]},
    {"smiles": "Nc1ccc(C[C@H](NS(=O)(=O)c2cnccc2N[C@@H](Cc2ccccc2)CN2CCOCC2)C(=O)N2CCC(CCF)CC2)cc1", "values": [
      {"measurement": "Activity", "setting": "Homo sapiens", "result": 2.9, "unit": "µM"}
    ]},
    {"smiles": "CN(C)C[C@H](Cc1ccccc1)Nc1ccncc1S(=O)(=O)N[C@@H](Cc1ccccc1)C(=O)N1CCC(CCF)CC1", "note": "(stereo in doubt; 64) [listing 1 of 2 here]", "values": [
      {"measurement": "Ki", "setting": "Prothrombin", "result": 130, "unit": "nM"}
    ]},
    {"smiles": "CCC1CCN(C(=O)[C@H](Cc2ccc(N)cc2)NS(=O)(=O)c2cnccc2N[C@H](COCCO)Cc2ccccc2)CC1", "note": "(stereo in doubt; 62) [listing 1 of 2 here]", "values": [
      {"measurement": "Activity", "setting": "Homo sapiens", "result": 5, "unit": "µM"}
    ]},
    {"smiles": "CCC1CCN(C(=O)[C@H](Cc2ccc(N)cc2)NS(=O)(=O)c2cnccc2N[C@H](COCCO)Cc2ccccc2)CC1", "note": "(stereo in doubt; 16)", "values": [
      {"measurement": "Ki", "setting": "Prothrombin", "result": 147, "unit": "nM"}
    ]},
    {"smiles": "CN(C)C[C@H](Cc1ccccc1)Nc1ccncc1S(=O)(=O)N[C@@H](Cc1ccccc1)C(=O)N1CCC(CCF)CC1", "note": "(stereo in doubt; 64) [listing 2 of 2 here]", "values": [
      {"measurement": "Activity", "setting": "Homo sapiens", "result": 9.6, "unit": "µM"}
    ]},
    {"smiles": "O=C([C@H](Cc1ccc(O)cc1)NS(=O)(=O)c1cnccc1N[C@H](COCCO)Cc1ccccc1)N1CCC(CCCl)CC1", "values": [
      {"measurement": "Activity", "setting": "Homo sapiens", "result": 4.4, "unit": "µM"},
      {"measurement": "Ki", "setting": "Prothrombin", "result": 28, "unit": "nM"}
    ]},
    {"smiles": "COc1ccc(C[C@@H](CO)Nc2ccncc2S(=O)(=O)N[C@@H](Cc2ccccc2)C(=O)N2CCC(CCF)CC2)cc1", "values": [
      {"measurement": "Ki", "setting": "Prothrombin", "result": 85, "unit": "nM"}
    ]},
    {"smiles": "CCC1CCN(C(=O)[C@H](Cc2ccc(N)cc2)NS(=O)(=O)c2cnccc2N[C@@H](Cc2ccccc2)CN2CCOCC2)CC1", "values": [
      {"measurement": "Ki", "setting": "Prothrombin", "result": 62, "unit": "nM"}
    ]},
    {"smiles": "CCC1CCN(C(=O)[C@H](Cc2ccc(N)cc2)NS(=O)(=O)c2cnccc2N[C@H](COCCO)Cc2ccccc2)CC1", "note": "(stereo in doubt; 62) [listing 2 of 2 here]", "values": [
      {"measurement": "bioavailability", "setting": "[1]", "result": 55, "unit": "%"},
      {"measurement": "Ki", "setting": "Prothrombin", "result": 147, "unit": "nM"}
    ]},
    {"smiles": "O=C([C@H](Cc1ccccc1)NS(=O)(=O)c1cnccc1N[C@@H](Cc1ccccc1)CN1CCC(O)CC1)N1CCC(CCF)CC1", "values": [
      {"measurement": "Ki", "setting": "Prothrombin", "result": 61, "unit": "nM"}
    ]},
    {"smiles": "O=C([C@H](Cc1ccccc1)NS(=O)(=O)c1cnccc1N[C@H](COCCO)Cc1ccccc1)N1CCC(CCF)CC1", "values": [
      {"measurement": "Ki", "setting": "Prothrombin", "result": 220, "unit": "nM"}
    ]}
  ]
}
